Data set [1] concerns relapsed AML cells. The data set is described as follows: Drug sensitivity assay, 1,536-well, 3-day culture with individual approved drugs at 10 μM, viability by alamarBlue. Conditions: number of relapsed AML cases out of 18 tested with >70% cell death; 10 μM, 3-day culture. It is filed as cell-based, human. A digest of the protocol: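 Three-day exposure of primary AML cells to individual drugs in 1,536-well format, viability read as percent live cells. Cells were thawed, cultured overnight, sorted by FACS for viable blasts and plated at 4,000-4,500 cells/5 μL in cytokine-supplemented IMDM/BIT medium.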
Background: Resazurin is reduced to fluorescent resorufin, in cell work by metabolically active cells.

The subject of data set [2] is AML patient samples. The data set is described as follows: 10-point dose-response drug screen of statins against AML patient samples, 3-day drug sensitivity assay. It is filed as cell-based, human. Conditions: for statin-mediated killing: highly sensitive cases 285, 340 and 290, result in words; for IC50: 3-day assay. Here is the method:
Drug sensitivity assays were performed using a 1,536-well platform where all cells and reagents were deposited in wells using an acoustic liquid handling unit that is highly accurate for dispensing of nanoliter volumes of liquid. […] After dispensing the cells into the wells, an independent drug at a known concentration is added to each well and incubated with the cells. After three days, the percentage of live cells in each well is determined to assess the killing efficiency of each compound. […] Cell viability assays are known to those of skill in the art. See, for example, Pemovska et al., Individualized systems medicine strategy to tailor treatments for patients with chemorefractory acute myeloid leukemia. Cancer Discovery 3:1416-1429, 2013; Pabst et al., Identification of small molecules that support human leukemia stem cell activity ex vivo. Nature Methods 11:436-442, 2014; Baccelli et al., A novel approach for the identification of efficient combination therapies in primary human acute myeloid leukemia specimens. Blood Cancer Journal 7:e529, 2017. In studies described herein, the 1,536-well format was utilized, which allowed for use of four times fewer cells as well as less drug and media components due to the small assay volume of 5 microliters. […] Other compounds like CellTiter-Glo (Promega, Madison, Wis.) are equally appropriate reagents for determining cell viability.
Conditions for the drug screening assays were as described in Pabst et al., Identification of small molecules that support human leukemia stem cell activity ex vivo, Nature Methods 11:436-442, 2014). Using this protocol, cells were cultured in Iscove's Modified Dulbecco's Medium (IMDM), 15% BIT (bovine serum albumin, insulin, transferrin; Stem Cell Technologies 09500 (Vancouver, Calif.)), 100 ng/ml SCF (Shenandoah 100-04 (Warwick, Pa.)), 50 ng/ml FLT3L (Shenandoah 100-21), 20 ng/ml IL-3 (Shenandoah 100-80), 20 ng/ml G-CSF (Shenandoah 100-72), 10^-4 M β-mercaptoethanol, gentamicin (50 μg/ml) and ciprofloxacin (10 μg/ml).
Cells were removed from liquid nitrogen and placed in a 37° C. bath, just until thawed. For 1,536-well screens utilizing 6,000 wells about 100 million cells were thawed. The volume was doubled with pre-warmed culture media and placed on ice for about one to two minutes. The cells were brought to a final volume of about 8 to 10 mL before spinning down at 1,100 rpm for 5 min at 10° C. The pelleted cells were resuspended in 10 mL of culture media and plated in a tissue-culture treated T75 flask at a density of 1 to 2 million cells/ml. The cells were cultured overnight prior to fluorescence-activated cell sorting of viable cells on the following day.
After cells were cultured overnight, a cell scraper was used to remove any cells that adhered to the plastic. The cells were gently pipetted up and down to break up aggregates. Then, the entire volume was transferred to a 50 mL conical tube through a 70 micron cell strainer to remove cell clumps. The T75 flask was rinsed and scraped with about 10 mL HBSS and transferred to the same 50 mL conical tube through the strainer. The harvested cells were spun down at 1,100 rpm for 5 min at 10° C. The cells were then resuspendd in about 300-500 microliters FACS buffer (HBSS+2% FBS+1× propidium iodide) and transferred to a FACS tube. The tube was placed on ice and viable cells that are forward- and side-scatter gated on viable myeloid blasts were sorted by FACS (the scatter gate should exclude small lymphocytes, large myeloid cells, and debris). After sorting the required number of viable cells, the cells were spun down at 1,100 rpm for 5 min at 10° C. and subsequently resuspended at 4,000-4,500 cells per 5 microliter volume of complete culture media with growth factors and penicillin/streptomycin.

For data set [3] the following is noted: read-out: In vivo cMax; plasma concentration achievable in vivo at the FDA-recommended dose and schedule; cited from earlier work.
Data set [4] concerns the target cGMP-inhibited phosphodiesterase (PDE3). Conditions: cited from earlier work.
Where [5] appears, read: patient sample AML 280, read-out: IC50 AML 280.
Setting [6] is: patient sample AML 285, read-out: IC50 AML 285.
[7] abbreviates: patient sample AML 290, read-out: IC50 AML 290.
The mark [8] stands for this setting: patient sample AML 297, read-out: IC50 AML 297.
Setting [9] is: patient sample AML 299, read-out: IC50 AML 299.
The mark [10] stands for this setting: patient sample AML 307, read-out: IC50 AML 307.
Setting [11] is: patient sample AML 330, read-out: IC50 AML 330.
Where [12] appears, read: patient sample AML 339, read-out: IC50 AML 339.
Setting [13] is: patient sample AML 340, read-out: IC50 AML 340.
Setting [14] is: patient sample AML 343, read-out: IC50 AML 343.
Where [15] appears, read: Homo sapiens, 72 h, patient sample AML 280, read-out: IC50 AML 280.
[16] abbreviates: Homo sapiens, 72 h, patient sample AML 285, read-out: IC50 AML 285.
[17] abbreviates: Homo sapiens, 72 h, patient sample AML 290, read-out: IC50 AML 290.
[18] abbreviates: Homo sapiens, 72 h, patient sample AML 297, read-out: IC50 AML 297.
The mark [19] stands for this setting: Homo sapiens, 72 h, patient sample AML 299, read-out: IC50 AML 299.
Setting [20] is: Homo sapiens, 72 h, patient sample AML 307, read-out: IC50 AML 307.
The mark [21] stands for this setting: Homo sapiens, 72 h, patient sample AML 330, read-out: IC50 AML 330.
[22] abbreviates: Homo sapiens, 72 h, patient sample AML 339, read-out: IC50 AML 339.
Setting [23] is: Homo sapiens, 72 h, patient sample AML 340, read-out: IC50 AML 340.
Setting [24] is: Homo sapiens, 72 h, patient sample AML 343, read-out: IC50 AML 343.

Where two headings read alike, the source gives them in different places.

What is called IC50 is the point on the concentration scale where inhibition reaches its midpoint. As to `CC(C)c1c(C(=O)Nc2ccccc2)c(-c2ccccc2)c(-c2ccc(F)cc2)n1CC[C@@H](O)C[C@@H](O)CC(=O)[O-].CC(C)c1c(C(=O)Nc2ccccc2)c(-c2ccccc2)c(-c2ccc(F)cc2)n1CC[C@@H](O)C[C@@H](O)CC(=O)[O-].[Ca+2]` [ATORVASTATIN CALCIUM], the “#Cases >70% cell death” value in data set [1] is 12. Further, the statin-mediated killing entry in data set [2] is listed as “most significant activity”. The IC50 in data set [2] (setting [5]) was 2.24 µM; in data set [2] (setting [6]), 0.475 µM; in data set [2] (setting [7]) it was 0.584 µM; in data set [2] (setting [8]), greater than 10 µM; in data set [2] (setting [9]) it was 2.9 µM; in data set [2] (setting [10]), 1.09 µM. Moreover, the IC50 in data set [2] (setting [11]) is greater than 10 µM; in data set [2] (setting [12]), 9.12 µM; in data set [2] (setting [13]), 0.732 µM; in data set [2] (setting [14]), greater than 10 µM.
As a reminder, the Cmax is the highest concentration seen after dosing. Take `CC(C)n1c(/C=C/C(O)CC(O)CC(=O)O)c(-c2ccc(F)cc2)c2ccccc21` (stereo not shown) [FLUVASTATIN]: in data set [1], the “#Cases >70% cell death” value is 7. The IC50 was 2.42 µM in data set [2] (setting [15]); 0.426 µM in data set [2] (setting [16]); 0.417 µM in data set [2] (setting [17]); greater than 10 µM in data set [2] (setting [18]); 3.81 µM in data set [2] (setting [19]); 1.58 µM in data set [2] (setting [20]). The IC50 was greater than 10 µM in data set [2] (setting [21]), 7.79 µM in data set [2] (setting [22]), 0.721 µM in data set [2] (setting [23]) and greater than 10 µM in data set [2] (setting [24]). In addition, in data set [3], the Cmax was 490 nM.
For the compound `CC[C@H](C)C(=O)O[C@H]1C[C@@H](C)C=C2C=C[C@H](C)[C@H](CC[C@@H]3C[C@@H](O)CC(=O)O3)[C@H]21` [LOVASTATIN], in data set [1], the “#Cases >70% cell death” value came out at 2. The IC50 in data set [2] (setting [15]) was greater than 10 µM; in data set [2] (setting [16]) it was 3.81 µM; in data set [2] (setting [17]), 4.41 µM; in data set [2] (setting [18]), greater than 10 µM; in data set [2] (setting [19]) it was greater than 10 µM; in data set [2] (setting [20]), greater than 10 µM. Besides, the IC50 in data set [2] (setting [21]) is greater than 10 µM; in data set [2] (setting [22]), greater than 10 µM; in data set [2] (setting [23]) it was 8.92 µM; in data set [2] (setting [24]), greater than 10 µM.
On to `O=C([O-])C[C@H](O)C[C@H](O)/C=C/c1c(C2CC2)nc2ccccc2c1-c1ccc(F)cc1.O=C([O-])C[C@H](O)C[C@H](O)/C=C/c1c(C2CC2)nc2ccccc2c1-c1ccc(F)cc1.[Ca+2]` [PITAVASTATIN CALCIUM], for which the “#Cases >70% cell death” value in data set [1] is 13. Moreover, the statin-mediated killing result in data set [2] is “most significant activity”. Also, the IC50 in data set [2] (setting [5]) is 1.35 µM; in data set [2] (setting [6]), 0.157 µM; in data set [2] (setting [7]), 0.149 µM; in data set [2] (setting [8]) it was greater than 10 µM; in data set [2] (setting [9]) it was 1.81 µM; in data set [2] (setting [10]), 0.726 µM. Also, the IC50 in data set [2] (setting [11]) is 9.83 µM; in data set [2] (setting [12]), 5.24 µM; in data set [2] (setting [13]) it was 0.475 µM; in data set [2] (setting [14]), greater than 10 µM. Further, in data set [3], the Cmax was 250 nM.
For `CC[C@H](C)C(=O)O[C@H]1C[C@H](O)C=C2C=C[C@H](C)[C@H](CC[C@@H](O)C[C@@H](O)CC(=O)O)[C@H]21` [PRAVASTATIN], the “#Cases >70% cell death” value in data set [1] came out at 1. Besides, the IC50 in data set [2] (setting [15]), in data set [2] (setting [16]), in data set [2] (setting [17]), in data set [2] (setting [18]), in data set [2] (setting [19]) and in data set [2] (setting [20]) was greater than 10 µM each time. Further, the IC50 in data set [2] (setting [21]), in data set [2] (setting [22]), in data set [2] (setting [23]) and in data set [2] (setting [24]) was greater than 10 µM each time.
As for `CC(C)c1nc(N(C)S(C)(=O)=O)nc(-c2ccc(F)cc2)c1/C=C/[C@@H](O)C[C@@H](O)CC(=O)[O-].CC(C)c1nc(N(C)S(C)(=O)=O)nc(-c2ccc(F)cc2)c1/C=C/[C@@H](O)C[C@@H](O)CC(=O)[O-].[Ca+2]` [ROSUVASTATIN CALCIUM (Crestor), ROSUVASTATIN CALCIUM], the “#Cases >70% cell death” value in data set [1] is reported as 9. The IC50 in data set [2] (setting [5]) was 8.35 µM; in data set [2] (setting [6]), 1.47 µM; in data set [2] (setting [7]), 1.46 µM; in data set [2] (setting [8]), greater than 10 µM; in data set [2] (setting [9]), greater than 10 µM; in data set [2] (setting [10]) it was 3.79 µM. Further, the IC50 was greater than 10 µM in data set [2] (setting [11]), greater than 10 µM in data set [2] (setting [12]), 2.52 µM in data set [2] (setting [13]) and greater than 10 µM in data set [2] (setting [14]).
In the case of `CCC(C)(C)C(=O)O[C@H]1C[C@@H](C)C=C2C=C[C@H](C)[C@H](CC[C@@H]3C[C@@H](O)CC(=O)O3)[C@H]21` [SIMVASTATIN], the “#Cases >70% cell death” value in data set [1] was 6. For the same compound, the IC50 was greater than 10 µM in data set [2] (setting [16]); greater than 10 µM in data set [2] (setting [17]); 6.94 µM in data set [2] (setting [18]); greater than 10 µM in data set [2] (setting [19]); greater than 10 µM in data set [2] (setting [20]); greater than 10 µM in data set [2] (setting [21]). For the same compound, the IC50 in data set [2] (setting [22]) is 5.08 µM; in data set [2] (setting [23]), greater than 10 µM; in data set [2] (setting [24]), greater than 10 µM.
In the case of `COc1cc2c(cc1OC)-c1c/c(=N\c3c(C)cc(C)cc3C)n(C)c(=O)n1CC2.Cl` [TREQUINSINçHCL], the “#Cases >70% cell death” value in data set [1] is on record as 1. In data set [4], the IC50 was 0.00025 µM.
